Measurements reported in the supplement of paper PMC10307832.

Columns and labels:
Assay in all cases: relative viability (nuclei count vs DMSO), 5 days (fraction); higher = more cells survive
Ruxolitinib + Foretinib = compound: N#CC[C@H](C1CCCC1)n1cc(-c2ncnc3[nH]ccc23)cn1 [Ruxolitinib] + COc1cc2c(Oc3ccc(NC(=O)C4(C(=O)Nc5ccc(F)cc5)CC4)cc3F)ccnc2cc1OCCCN1CCOCC1 [Foretinib] (partner 0.25 µM)
Summary of the method: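 Cells from lung cancer lines were seeded into 1536-well plates and, one day later, dosed by pin tool. Treatments were either a single drug or a fixed dose of an anchor drug with five library-drug doses (not always all listed) in √10 steps. After 5 days, nuclei were stained in a one-step fixation (final 0.05% Triton X-100, 1% formaldehyde, 1 ug/ml Hoechst) and counted on 4× images, and relative viability is the treated-to-vehicle nuclei ratio, as the median of duplicate plates.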

VE-821 = compound: CS(=O)(=O)c1ccc(-c2cnc(N)c(C(=O)Nc3ccccc3)n2)cc1 [VE-821]
Summary of the method: (§1)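 After an overnight hold at 37 °C, lung cancer cell lines in 1536-well plates were pinned with five library-drug doses (not always all listed), each √10 from the next, on vehicle-anchored plates. The cells stayed 5 days without fresh medium, then a one-step fix, permeabilisation and Hoechst stain preceded 4× imaging and MetaXpress nuclear counts. A plate passed only with control CV under 25% and at least one doubling. Viability is the median, over plates, of treated-well nuclei relative to vehicle-well nuclei.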

Vismodegib = compound: CS(=O)(=O)c1ccc(C(=O)Nc2ccc(Cl)c(-c3ccccn3)c2)c(Cl)c1 [Vismodegib]
Summary of the method: as §1

Ruxolitinib = compound: N#CC[C@H](C1CCCC1)n1cc(-c2ncnc3[nH]ccc23)cn1 [Ruxolitinib]
Summary of the method: as §1

Cell Line	relative viability (Ruxolitinib + Foretinib; first compound 0.08 µM)	relative viability (Ruxolitinib + Foretinib; first compound 0.253 µM)	relative viability (Ruxolitinib + Foretinib; first compound 0.8 µM)	relative viability (Ruxolitinib + Foretinib; first compound 2.53 µM)	relative viability (Ruxolitinib + Foretinib; first compound 8 µM)	relative viability (VE-821; 0.08 µM)	relative viability (VE-821; 0.253 µM)	relative viability (VE-821; 0.8 µM)	relative viability (VE-821; 2.53 µM)	relative viability (VE-821; 8 µM)	relative viability (Vismodegib; 0.08 µM)	relative viability (Vismodegib; 0.253 µM)	relative viability (Vismodegib; 0.8 µM)	relative viability (Vismodegib; 2.53 µM)	relative viability (Vismodegib; 8 µM)	relative viability (Ruxolitinib; 0.08 µM)	relative viability (Ruxolitinib; 0.253 µM)	relative viability (Ruxolitinib; 0.8 µM)	relative viability (Ruxolitinib; 2.53 µM)	relative viability (Ruxolitinib; 8 µM)
NCI-H1666	0.844	0.93	1.01	0.856	0.892	1.02	0.952	1.01	1.1	0.853	0.931	0.928	1	0.955	1.07	1	0.987	1.07	0.884	1.1
EPLC-272H	0.645	0.635	0.79	0.573	0.472	1.06	0.916	1.08	1.02	0.663	0.936	0.942	0.875	0.952	0.863	0.966	0.894	0.933	0.906	0.818
NCI-H838	1.06	0.994	0.907	0.572	0.453	1.06	0.887	0.902	1.01	0.791	0.906	0.893	0.941	0.947	0.973	0.918	0.897	0.832	0.567	0.478
NCI-H2087	1.03	0.983	1.28	0.975	0.772	1.16	0.871	0.958	1.32	1.05	0.946	0.969	0.941	1.09	0.906	1.04	0.957	1.12	0.935	0.941
LC-2-ad		0.743	0.977	0.746	0.64	1.07	0.978	1.05	1.12	0.995	1	0.952	0.939	0.929	0.907	0.779	0.971	1.01	0.842	0.665
NCI-H2405		1.06	1.17	1.08	0.875	1.06	0.968	0.968	1.09	0.993	0.96	1.06	0.927	0.991	1.03	0.715	0.974	0.999	0.938	0.52
HCC-366	0.934	0.855	1.07	0.915	0.744	1.06	1.01	0.85	0.925	0.191	0.997	1.04	0.998	0.984	1	1.07	0.984	1.05	1.03	0.932
NCI-H3122	0.942	0.873	1.01	0.881	0.948	1.02	1.01	0.982	1.01	0.933	0.962	1.01	0.904	0.973	0.92	0.986	1.03	1.01	0.868	0.915
LU99A	0.882	0.858	0.787	0.69	0.641	0.987	1.01	0.962	0.998	0.464	0.989	0.899	0.964	0.819	0.922	1.06	0.997	1.08	0.816	0.777
NCI-H1650		1.25	1.29	1.27	1.13	0.934	0.841	0.911	0.802	0.465	0.934	0.813	0.877	0.864	0.941		0.958	1.29	0.812	0.787
EMC-BAC-2	1.06	0.951	1.03	0.819	0.824	1.18	0.896	1.02	0.965	0.858	0.99	0.953	0.903	1.01	0.934	0.974	0.946	1.06	0.978	0.678
HCC-78	0.501	0.568	0.599	0.554	0.515	1.1	0.863	0.887	1.04	0.756	0.82	0.914	0.875	0.902	0.865	0.831	0.717	0.869	0.853	0.743
NCI-H1734	0.862	0.713	0.894	0.759	0.815	1.07	0.989	0.964	1.03	0.656	0.966	0.954	0.951	0.993	0.961	0.962	0.914	1.15	0.879	0.942
COR-L23	0.944	0.988	1.07	1	0.772	1.12	0.953	1.15	1.11	0.866	0.981	0.933	1.03	1.02	1.05	1.07	0.995	1.09	0.981	0.785
RERF-LC-KJ	0.862	0.95	0.914	0.921	0.927	0.986	0.916	0.878	0.923	0.786	1.03	0.967	1.03	0.973	1.04	0.969	0.933	1.06	1.01	0.965
NCI-H1437	1.37	1.51	1.41	1.35	1.17	1.03	0.97	0.988	1.01	0.956	0.951	0.967	1.01	0.964	0.999	1.09	1.1	1.08	0.946	0.848
